No end group written: not given here.
Legend:
S. aureus (5) = conditions: Table 6B
Experimental: (§1) All the strains (see below) used in minimal inhibitory concentration (MIC) assays (Ovchinnikov et al., 2017, Front Microbiol., 8, p774, doi:10.3389/fmicb.2017.00774) were grown in BHI medium (Oxoid) at 30° C. without shaking. The tested strains were obtained from the LMG collection. […] NisinZ and micrococcin P1 were purified from source. Synthesized peptides were solubilized to concentrations of 10.0-0.1 mg/ml in 0.1% (vol/vol) trifluoroacetic acid and stored at −20° C. until use. Garvicin KS is made up of 3 peptides:
(§2) Bacteriocin activity was determined using a microtitre plate assay. The plates were incubated at 30° C. for 8 h and the growth was measured spectrophotometrically at 600 nm (A600) with 15 min intervals using SPECTROstarNano (BMG LABTECH, Germany). The MIC was defined as the bacteriocin concentration that inhibited the growth of the indicator strain by at least 50% in 200 μl culture (i.e., 50% of the turbidity of the control culture without bacteriocin).

[1] = test system: E. faecalis LMGT3358 resistant mutants
Method in brief: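 Indicator strains were grown in BHI medium at 30° C without shaking and challenged with bacteriocin in a microtiter plate assay. MIC is the lowest bacteriocin concentration that inhibits growth by at least 50%, judged as 50% of the turbidity of the bacteriocin-free control culture.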

Sa 3328 = experiment: microbe, parasite or virus in culture; conditions: Sa 3328 (S. aureus)
Experimental: as §1, §2

Sa 3242 = experiment: microbe, parasite or virus in culture; conditions: Sa 3242 (S. aureus)
Experimental: as §1, §2

Sa ATCC 33591 = experiment: microbe, parasite or virus in culture; conditions: Sa ATCC 33591 (S. aureus)
Experimental: as §1, §2

Sa3323 = experiment: microbe, parasite or virus in culture; conditions: Sa3323 (S. aureus)
Experimental: as §1, §2

SH 4015 = experiment: microbe, parasite or virus in culture; conditions: SH 4015 (S. haemolyticus)
Experimental: as §1, §2

Sa3324 = experiment: microbe, parasite or virus in culture; conditions: Sa3324 (S. aureus)
Experimental: as §1, §2

SH 4016 = experiment: microbe, parasite or virus in culture; conditions: SH 4016 (S. haemolyticus)
Experimental: as §1, §2

S. pseudointermedius (3) = conditions: S. pseudointermedius (3), Table 6B
Experimental: as §1, §2

SP 4013 = experiment: organism not typed; conditions: SP 4013 (S. pseudointermedius)
Experimental: as §1, §2

SP 4014 = experiment: organism not typed; conditions: SP 4014 (S. pseudointermedius)
Experimental: as §1, §2

SP 4012 = experiment: organism not typed; conditions: SP 4012 (S. pseudointermedius)
Experimental: as §1, §2

Sequence	MIC (S. aureus (5)) [µg/mL]	resistance of lower resistance (LR) colonies compared to the WT ([1]; five LR colonies of E. faecalis)	resistance of highly resistant (HR) colonies compared to the WT ([1]; seven HR colonies of E. faecalis)	MIC (Sa 3328) [µg/mL]	MIC (Sa 3242) [µg/mL]	MIC (Sa ATCC 33591) [µg/mL]	MIC (Sa3323) [µg/mL]	MIC (SH 4015) [µg/mL]	MIC (Sa3324) [µg/mL]	MIC (SH 4016) [µg/mL]	MIC (S. pseudointermedius (3)) [µg/mL]	MIC (SP 4013) [µg/mL]	MIC (SP 4014) [µg/mL]	MIC (SP 4012) [µg/mL]
MKFKFNPTGTIVKKLTQYEIAWFKNKHGYYPWEIPRC [EntK1]	>25	–	–	–	–	–	–	–	–	–	–	–	–	–
MLAKIKAMIKKFPNPYTLAAKLTTYEINWYKQQYGRYPWERPVA [EntEJ97]	–	16-32 times	at least 500 times	6.25	6.25	>50	6.25	12.5	12.5	12.5	12.5	12.5	12.5	12.5

— patent publication US11648289B2, “Antibacterial method” (priority 2016, dated 2023)
